Results taken from ChEMBL document CHEMBL1201862, “PubChem BioAssay data set” (2004).
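Interpolation was linear, between the two tested concentrations surrounding the appropriate level; five concentrations were tested over 48 hours in 96-well plates. Abbreviation: GI50, concentration required for 50% inhibition of growth.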 Calls of active or inactive are those of the source. Rule as the data show it: active = GI50 up to about 1.1 µM and inactive = higher.

Legend:
Assay in all cases: NCI-60 cell line screen, 48 h
A498 = tested on: A498
ACHN = tested on: ACHN
BT-549 = tested on: BT-549
CCRF-CEM = tested on: CCRF-CEM
DU-145 = tested on: DU-145
EKVX = tested on: EKVX
HL-60 = tested on: HL-60
HOP-92 = tested on: HOP-92
Hs-578T = tested on: Hs-578T
KM12 = tested on: KM12
M14 = tested on: M14
MDA-N = tested on: MDA-N
MOLT-4 = tested on: MOLT-4
NCI-H460 = tested on: NCI-H460
OVCAR-4 = tested on: OVCAR-4
PC-3 = tested on: PC-3
SF-268 = tested on: SF-268
SF-295 = tested on: SF-295
SK-MEL-2 = tested on: SK-MEL-2
UO-31 = tested on: UO-31

Row | SMILES | GI50 (A498) | GI50 (ACHN) | GI50 (BT-549) | GI50 (CCRF-CEM) | GI50 (DU-145) | GI50 (EKVX) | GI50 (HL-60) | GI50 (HOP-92) | GI50 (Hs-578T) | GI50 (KM12) | GI50 (M14) | GI50 (MDA-N) | GI50 (MOLT-4) | GI50 (NCI-H460) | GI50 (OVCAR-4) | GI50 (PC-3) | GI50 (SF-268) | GI50 (SF-295) | GI50 (SK-MEL-2) | GI50 (UO-31)
1 | Cc1occc1C(=S)Nc1ccc(Cl)c(C(=O)OC(C)C2CC2)c1 (stereo not given) | 22.3 µM (inactive) | 17.3 µM (inactive) | 22.5 µM (inactive) | 50.1 µM (inactive) | 28.1 µM (inactive) | 19.1 µM (inactive) | 24.2 µM (inactive) | 23.5 µM (inactive) | 27.7 µM (inactive) | 16.3 µM (inactive) | 24.9 µM (inactive) | 18.6 µM (inactive) | 17.4 µM (inactive) | 35.7 µM (inactive) | 15.3 µM (inactive) | 18.9 µM (inactive) | 22.6 µM (inactive) | 17.2 µM (inactive) | 18.3 µM (inactive) | 14.7 µM (inactive)
2 | C=C1C(=O)O[C@@H]2C[C@@H](C)[C@@H]3C=CC(=O)[C@@]3(C)[C@@H](OC(=O)CC(=O)O[C@H]3[C@@H]4C(=C)C(=O)O[C@@H]4C[C@@H](C)[C@@H]4C=CC(=O)[C@]43C)[C@H]12 | 0.213 µM (active) | 0.03 µM (active) | 0.0386 µM (active) | < 0.01 µM (active) | 2.56 µM (inactive) | 0.0811 µM (active) | < 0.01 µM (active) | 0.0296 µM (active) | 0.167 µM (active) | 0.0478 µM (active) | 0.0235 µM (active) | 0.0755 µM (active) | 0.0153 µM (active) | 0.161 µM (active) | 0.0468 µM (active) | 0.146 µM (active) | 0.0582 µM (active) | 0.115 µM (active) | 0.0893 µM (active) | 0.137 µM (active)
3 | O=C(NCCN1CCCC1)c1cn2c(ccc3sc4ccccc4c(=O)c32)n1 | 16.3 µM (inactive) | 5.13 µM (inactive) | 17.6 µM (inactive) | 1.22 µM (inactive) | 13.2 µM (inactive) | 15.6 µM (inactive) | 5.61 µM (inactive) | 15.2 µM (inactive) | 17 µM (inactive) | 16.7 µM (inactive) | 15.6 µM (inactive) | 16.2 µM (inactive) | 0.422 µM (active) | 1.01 µM (active) | 12.3 µM (inactive) | 13.8 µM (inactive) | 12.4 µM (inactive) | 13.8 µM (inactive) | 19.2 µM (inactive) | 13.3 µM (inactive)
4 | NS(=O)(=O)c1c(O)c2ccccc2oc1=O | > 100 µM (inactive) | > 100 µM (inactive) | > 100 µM (inactive) | > 100 µM (inactive) | > 100 µM (inactive) | > 100 µM (inactive) | > 100 µM (inactive) | > 100 µM (inactive) | > 100 µM (inactive) | > 100 µM (inactive) | > 100 µM (inactive) | > 100 µM (inactive) | > 100 µM (inactive) | > 100 µM (inactive) | > 100 µM (inactive) | > 100 µM (inactive) | > 100 µM (inactive) | > 100 µM (inactive) | > 100 µM (inactive) | > 100 µM (inactive)
5 | O=C1/C(=C\c2cccc(Oc3ccccc3)c2)SC(c2ccccc2)N1c1ccc(Cl)cc1 (stereo not given) | > 95.9 µM (inactive) | 20.2 µM (inactive) | 28.2 µM (inactive) | 5.89 µM (inactive) | 65.8 µM (inactive) | 80.7 µM (inactive) | 10.1 µM (inactive) | 61.1 µM (inactive) | > 67.9 µM (inactive) | 12.6 µM (inactive) | 3.17 µM (inactive) | 4.79 µM (inactive) | 20.4 µM (inactive) | 24.5 µM (inactive) | 17.4 µM (inactive) | 63.2 µM (inactive) | 18.2 µM (inactive) | 7.11 µM (inactive) | > 47.5 µM (inactive) | 16 µM (inactive)
6 | COc1ccc(C[N+](C)(C)N)cc1OC | > 100 µM (inactive) | > 10 µM (inactive) | > 10 µM (inactive) | > 10 µM (inactive) | > 10 µM (inactive) | > 100 µM (inactive) | > 10 µM (inactive) | > 10 µM (inactive) | > 10 µM (inactive) | > 10 µM (inactive) | > 10 µM (inactive) | > 10 µM (inactive) | > 10 µM (inactive) | > 100 µM (inactive) | > 10 µM (inactive) | > 10 µM (inactive) | > 10 µM (inactive) | > 10 µM (inactive) | > 100 µM (inactive) | > 100 µM (inactive)
7 | CN1C(=O)C23CC4=CC=CC(O)C4N2C(=O)C1(CO)SS3 (stereo not given) | 0.234 µM (active) | 0.174 µM (active) | 0.291 µM (active) | 0.0205 µM (active) | 0.157 µM (active) | 0.368 µM (active) | 0.0223 µM (active) | 0.165 µM (active) | 0.39 µM (active) | 0.0991 µM (active) | 0.0506 µM (active) | 0.188 µM (active) | 0.134 µM (active) | 0.0948 µM (active) | 0.223 µM (active) | 0.167 µM (active) | 0.207 µM (active) | 0.181 µM (active) | 0.22 µM (active) | 0.565 µM (active)
8 | COc1ccccc1Nc1nc(N)nc(N)c1N | > 100 µM (inactive) | > 100 µM (inactive) | > 100 µM (inactive) | 27 µM (inactive) | > 100 µM (inactive) | > 100 µM (inactive) | 29.1 µM (inactive) | > 100 µM (inactive) | > 100 µM (inactive) | > 100 µM (inactive) | > 100 µM (inactive) | 17.6 µM (inactive) | 14.7 µM (inactive) | 38.5 µM (inactive) | > 100 µM (inactive) | 90.8 µM (inactive) | 64.1 µM (inactive) | 28.6 µM (inactive) | > 100 µM (inactive) | > 100 µM (inactive)
9 | CN1CCN(CCCCN2c3ccccc3Sc3ccc(N=[N+]=[N-])cc32)CC1 | 13.8 µM (inactive) | 8.65 µM (inactive) | 9.77 µM (inactive) | 2.6 µM (inactive) | 12.9 µM (inactive) | 13.6 µM (inactive) | 1.95 µM (inactive) | 2.75 µM (inactive) | 7.31 µM (inactive) | 6.22 µM (inactive) | 2.05 µM (inactive) | 2.88 µM (inactive) | 2.41 µM (inactive) | 6.01 µM (inactive) | 10.2 µM (inactive) | 4.65 µM (inactive) | 9.71 µM (inactive) | 12.2 µM (inactive) | 3.99 µM (inactive) | 7.57 µM (inactive)
10 | COC(=O)c1ccc(OCc2ccc3nc(-c4ccccc4)c(Cl)nc3c2)cc1 | > 100 µM (inactive) | 48.8 µM (inactive) | > 100 µM (inactive) | > 100 µM (inactive) | > 100 µM (inactive) | > 100 µM (inactive) | 40.6 µM (inactive) | 28.1 µM (inactive) | 30.1 µM (inactive) | > 100 µM (inactive) | > 100 µM (inactive) | > 100 µM (inactive) | 91.6 µM (inactive) | > 100 µM (inactive) | 62.1 µM (inactive) | > 100 µM (inactive) | 42.9 µM (inactive) | 46 µM (inactive) | 84.7 µM (inactive) | > 100 µM (inactive)
11 | COC(=O)C[C@H](CCSC)NC(=O)C[C@H](CCSC)NC(=O)C[C@H](CCSC)NC(=O)OC(C)(C)C | 21 µM (inactive) | 36.9 µM (inactive) | 69.3 µM (inactive) | 67.1 µM (inactive) | 87.3 µM (inactive) | 34.8 µM (inactive) | 1.44 µM (inactive) | 16.3 µM (inactive) | 30.3 µM (inactive) | > 100 µM (inactive) | 57.5 µM (inactive) | 48.3 µM (inactive) | > 100 µM (inactive) | 69.8 µM (inactive) | 20.3 µM (inactive) | > 100 µM (inactive) | 20.4 µM (inactive) | 21.8 µM (inactive) | 24.2 µM (inactive) | > 100 µM (inactive)
12 | Nc1ncnc2c1ncn2CCCNO | > 100 µM (inactive) | > 100 µM (inactive) | > 100 µM (inactive) | > 100 µM (inactive) | > 100 µM (inactive) | > 100 µM (inactive) | > 100 µM (inactive) | > 100 µM (inactive) | > 100 µM (inactive) | > 100 µM (inactive) | > 100 µM (inactive) | > 100 µM (inactive) | > 100 µM (inactive) | > 100 µM (inactive) | > 100 µM (inactive) | > 100 µM (inactive) | > 100 µM (inactive) | > 100 µM (inactive) | > 100 µM (inactive) | > 100 µM (inactive)
13 | Oc1[nH]c(Nc2ccc(F)c(Cl)c2)nc2ncnc1-2 | > 100 µM (inactive) | > 100 µM (inactive) | > 100 µM (inactive) | > 100 µM (inactive) | > 100 µM (inactive) | > 100 µM (inactive) | > 100 µM (inactive) | > 100 µM (inactive) | 29.6 µM (inactive) | > 100 µM (inactive) | > 100 µM (inactive) | > 100 µM (inactive) | 7.29 µM (inactive) | > 100 µM (inactive) | > 100 µM (inactive) | > 100 µM (inactive) | > 100 µM (inactive) | > 100 µM (inactive) | > 100 µM (inactive) | > 100 µM (inactive)
14 | CCOC(=O)c1c(CN2CCCC2)n(-c2ccccc2)c2cc(Br)c(O)cc12 | 16.4 µM (inactive) | 17.8 µM (inactive) | 36.1 µM (inactive) | 2.06 µM (inactive) | 19.6 µM (inactive) | 17 µM (inactive) | 9.44 µM (inactive) | 20 µM (inactive) | 26.4 µM (inactive) | 16.8 µM (inactive) | 15.5 µM (inactive) | 17.2 µM (inactive) | 17 µM (inactive) | 17 µM (inactive) | 14.3 µM (inactive) | 21.3 µM (inactive) | 19.9 µM (inactive) | 16.6 µM (inactive) | 18.3 µM (inactive) | 12.1 µM (inactive)
